Results from patent US12440496B2, “Natriuretic peptide receptor a agonists useful for the treatment of cardiometabolic diseases, kidney disease and diabetes” (Merck Sharp & Dohme LLC, priority 2019, dated 2025).

Target: T1, hNPRA (Homo sapiens, UniProt P16066)
T1 construct: expressed in transfected cells
T1 sequence (P16066 33-1061): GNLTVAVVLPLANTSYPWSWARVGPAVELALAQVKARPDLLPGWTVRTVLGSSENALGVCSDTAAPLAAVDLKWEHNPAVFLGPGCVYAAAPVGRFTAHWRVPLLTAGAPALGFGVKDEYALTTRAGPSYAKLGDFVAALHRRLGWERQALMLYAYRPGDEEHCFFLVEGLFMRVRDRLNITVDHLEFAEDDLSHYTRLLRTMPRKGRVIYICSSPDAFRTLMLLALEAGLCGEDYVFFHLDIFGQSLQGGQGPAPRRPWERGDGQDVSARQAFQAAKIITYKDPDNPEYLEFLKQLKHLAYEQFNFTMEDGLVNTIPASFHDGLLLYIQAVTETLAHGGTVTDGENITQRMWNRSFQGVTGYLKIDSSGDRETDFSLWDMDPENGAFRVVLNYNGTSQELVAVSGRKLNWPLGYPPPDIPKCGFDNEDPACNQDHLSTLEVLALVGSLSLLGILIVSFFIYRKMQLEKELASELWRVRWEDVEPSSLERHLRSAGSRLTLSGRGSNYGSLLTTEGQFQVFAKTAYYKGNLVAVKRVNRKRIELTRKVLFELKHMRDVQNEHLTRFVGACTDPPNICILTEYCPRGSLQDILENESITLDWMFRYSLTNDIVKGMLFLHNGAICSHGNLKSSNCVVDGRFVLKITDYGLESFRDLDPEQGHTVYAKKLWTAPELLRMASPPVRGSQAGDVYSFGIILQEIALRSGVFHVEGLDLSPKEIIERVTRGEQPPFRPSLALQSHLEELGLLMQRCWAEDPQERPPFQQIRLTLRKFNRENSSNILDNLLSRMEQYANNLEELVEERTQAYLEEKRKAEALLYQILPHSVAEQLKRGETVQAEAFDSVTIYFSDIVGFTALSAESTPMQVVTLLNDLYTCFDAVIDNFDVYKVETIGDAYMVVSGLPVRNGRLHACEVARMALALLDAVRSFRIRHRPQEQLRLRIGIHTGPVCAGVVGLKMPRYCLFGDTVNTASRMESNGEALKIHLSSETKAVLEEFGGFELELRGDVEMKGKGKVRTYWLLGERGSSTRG
Assay: NPRA Functional Cell Assay (cGMP HTRF, NPRA HEK JumpIn stable cells)
Format: cell-based
Conditions: cGMP production, 1 hour at 37° C., 10-point dose response
In short: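 cGMP HTRF read-out after 1 hour compound treatment at 37° C. of human NPRA-expressing HEK JumpIn cells, 1500 cells/well, in buffer with phosphodiesterase inhibitors IBMX and RO20 (100 uM each). Signal converted to [cGMP] by calibration curve; EC50s fitted by 4-parameter logistic; 50 nM h-ANP as positive response.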

Point of comparison: CN1CC(NC(=O)c2cccc([C@@H](CCN3CCC(c4cccc(C(=O)O)c4)CC3)NC(=O)c3nc4cc5c(nc4s3)CC[C@H](C(C)(C)C)C5)c2)C1 (racemic) [Example 107, 3-[1-[rac-(3R)-3-[3-[(1-methylazetidin-1-ium-3-yl)carbamoyl]phenyl]-3-[rac-(7S)-7-tert-butyl-5,6,7,8-tetrahydrothiazolo[5,4-b]quinoline-2-carbonyl]amino]propyl]-4-piperidyl]benzoic acid; 2,2,2-trifluoroacetate], EC50 526 nM. Against it:
- CNC(=O)c1cccc([C@@H](CCN(C)C)NC(=O)c2nc3cc4c(nc3s2)CC[C@H](C(C)(C)C)C4)c1 (racemic) [Example 98, rac-(7S)-7-tert-butyl-N-[rac-(1R)-3-(dimethyl-amino)-1-[3-(methylcarbamoyl)phenyl]propyl]-5,6,7,8-tetrahydrothiazolo[5,4-b] quinoline-2-carboxamide] — 2.8-fold higher, 1450 nM
- CN(C)CC[C@@H](NC(=O)c1nc2cc3c(nc2s1)CC[C@H](C(C)(C)C)C3)c1cccc(C(N)=O)c1 (racemic) [Example 99, rac-(7S)-7-tert-butyl-N-[rac-(1R)-1-(3-carbamoylphenyl)-3-(dimethylamino)propyl]-5,6,7,8-tetrahydrothiazolo[5,4-b] quinoline-2-carboxamide] — 3.5-fold higher, 1830 nM
- CN(C)CC[C@@H](NC(=O)c1nc2cc3c(nc2s1)CC[C@H](C(C)(C)C)C3)c1cccc(C(=O)NC2CCN(CC(F)(F)F)C2)c1 (mixture of isomers) [Example 100, rac-(7S)-7-tert-butyl-N-[rac-(1R)-3-(dimethyl-amino)-1-[3-[[1-(2,2,2-trifluoroethyl)pyrrolidin-3-yl]carbamoyl]phenyl]propyl]-5,6,7,8-tetrahydrothiazolo[5,4-b] quinoline-2-carboxamide] — 3.8-fold higher, 2000 nM
- CN1CC(NC(=O)c2cccc([C@@H](CCN3CCC(CC(=O)O)CC3)NC(=O)c3nc4cc5c(nc4s3)CC[C@H](C(C)(C)C)C5)c2)C1 (racemic) [Example 101, 2-[1-[rac-(3R)-3-[3-[(1-methylazetidin-1-ium-3-yl)carbamoyl]phenyl]-3-[[rac-(7S)-7-tert-butyl-5,6,7,8-tetrahydrothiazolo [5,4-b]quinoline-2-carbonyl]amino]propyl]-4-piperidyl]acetic acid; 2,2,2-trifluoroacetate] — 3.6-fold lower, 146 nM
- CN1CC(NC(=O)c2cccc([C@@H](CCN3CCC(CCO)CC3)NC(=O)c3nc4cc5c(nc4s3)CC[C@H](C(C)(C)C)C5)c2)C1 (racemic) [Example 102, rac-(7S)-7-tert-butyl-N-[rac-(1R)-3-[4-(2-hydroxyethyl)-1-piperidyl]-1-[3-[(1-methylazetidin-1-ium-3-yl)carbamoyl]phenyl]propyl]-5,6,7,8-tetrahydrothiazolo[5,4-b] quinoline-2-carboxamide; 2,2,2-trifluoroacetate] — 3.3-fold lower, 158 nM
- CN1CC(NC(=O)c2cccc([C@@H](CCN3CCC(c4nnn[nH]4)CC3)NC(=O)c3nc4cc5c(nc4s3)CC[C@H](C(C)(C)C)C5)c2)C1 (racemic) [Example 103, rac-(7S)-7-tert-butyl-N-[rac-(1R)-1-[3-[(1-methylazetidin-1-ium-3-yl)carbamoyl]phenyl]-3-[4-(1H-tetrazol-5-yl)-1-piperidyl]propyl]-5,6,7,8-tetrahydrothiazolo[5,4-b] quinoline-2-carboxamide; 2,2,2-trifluoroacetate] — 3.3-fold lower, 160 nM
- CN1CC(NC(=O)c2cccc([C@@H](CCN3CCC(CO)CC3)NC(=O)c3nc4cc5c(nc4s3)CC[C@H](C(C)(C)C)C5)c2)C1 (racemic) [Example 104, rac-(7S)-7-tert-butyl-N-[rac-(1R)-3-[4-(hydroxymethyl)-1-piperidyl]-1-[3-[(1-methylazetidin-1-ium-3-yl)carbamoyl]phenyl]propyl]-5,6,7,8-tetrahydrothiazolo[5,4-b] quinoline-2-carboxamide; 2,2,2-trifluoroacetate] — 2.8-fold lower, 186 nM
- CN1CC(NC(=O)c2cccc([C@@H](CCN3CCC(c4ccc(C(=O)O)cc4)CC3)NC(=O)c3nc4cc5c(nc4s3)CC[C@H](C(C)(C)C)C5)c2)C1 (racemic) [Example 105, 4-[1-[rac-(3R)-3-[3-[(1-methylazetidin-1-ium-3-yl)carbamoyl]phenyl]-3-[rac-(7S)-7-tert-butyl-5,6,7,8-tetrahydrothiazolo [5,4-b]quinoline-2-carbonyl]amino]propyl]-4-piperidyl]benzoic acid; 2,2,2-trifluoroacetate] — 1.7-fold lower, 315 nM
- CN1CC(NC(=O)c2cccc([C@@H](CCN3CCC[C@H]3CC(=O)O)NC(=O)c3nc4cc5c(nc4s3)CC[C@H](C(C)(C)C)C5)c2)C1 (racemic) [Example 106, 2-[rac-(2S)-1-[rac-(3R)-3-[3-[(1-methylazetidin-1-ium-3-yl)carbamoyl]phenyl]-3-[rac-(7S)-7-tert-butyl-5,6,7,8-tetrahydrothiazolo[5,4-b]quinoline-2-carbonyl]amino]propyl] pyrrolidin-2-yl]acetic acid; 2,2,2-trifluoroacetate] — within 1.5-fold, 521 nM
- CN1CC(NC(=O)c2cccc([C@@H](CCN3CC4C(C3)C4C(=O)O)NC(=O)c3nc4cc5c(nc4s3)CC[C@H](C(C)(C)C)C5)c2)C1 (mixture of isomers) [Example 108, 3-[rac-(3R)-3-[3-[(1-methylazetidin-1-ium-3-yl)carbamoyl]phenyl]-3-[[rac-(7S)-7-tert-butyl-5,6,7,8-tetrahydrothiazolo [5,4-b]quinoline-2-carbonyl]amino]propyl]-3-azabicyclo[3.1.0]hexane-6-carboxylic acid; 2,2,2-trifluoroacetate] — within 1.5-fold, 621 nM
- COC1CCN(CC[C@@H](NC(=O)c2nc3cc4c(nc3s2)CC[C@H](C(C)(C)C)C4)c2cccc(C(=O)NC3CN(C)C3)c2)CC1 (racemic) [Example 109, rac-(7S)-7-tert-butyl-N-[rac-(1R)-3-(4-methoxy-1-piperidyl)-1-[3-[(1-methylazetidin-1-ium-3-yl)carbamoyl]phenyl]propyl]-5,6,7,8-tetrahydrothiazolo[5,4-b] quinoline-2-carboxamide; 2,2,2-trifluoroacetate] — within 1.5-fold, 629 nM
- COC(=O)CC1CCN(CC[C@@H](NC(=O)c2nc3cc4c(nc3s2)CC[C@H](C(C)(C)C)C4)c2cccc(C(=O)NC3CN(C)C3)c2)CC1 (racemic) [Example 110, methyl 2-[1-[rac-(3R)-3-[3-{(1-methylazetidin-1-ium-3-yl)carbamoyl]phenyl]-3-[rac-(7S)-7-tert-butyl-5,6,7,8-tetrahydrothiazolo[5,4-b]quinoline-2-carbonyl]amino]propyl]-4-piperidyl]acetate; 2,2,2-trifluoroacetate] — within 1.5-fold, 632 nM
- CN(CCC(=O)O)CC[C@@H](NC(=O)c1nc2cc3c(nc2s1)CC[C@H](C(C)(C)C)C3)c1cccc(C(=O)NC2CN(C)C2)c1 (racemic) [Example 111, 3-[methyl-[rac-(3R)-3-[3-[(1-methylazetidin-1-ium-3-yl)carbamoyl]phenyl]-3-[[rac-(7S)-7-tert-butyl-5,6,7,8-tetrahydrothiazolo[5,4-b]quinoline-2-carbonyl]amino]propyl]amino] propanoic acid; 2,2,2-trifluoroacetate] — within 1.5-fold, 645 nM
- CN1CC(NC(=O)c2cccc([C@@H](CCN3CCC(C(=O)O)C3)NC(=O)c3nc4cc5c(nc4s3)CC[C@H](C(C)(C)C)C5)c2)C1 (mixture of isomers) [Example 112, rac-(3R)-1-[rac-(3R)-3-[3-[(1-methylazetidin-1-ium-3-yl)carbamoyl]phenyl]-3-[rac-(7S)-7-tert-butyl-5,6,7,8-tetrahydrothiazolo[5,4-b]quinoline-2-carbonyl]amino]propyl]pyrrolidine-3-carboxylic acid; 2,2,2-trifluoroacetate] — within 1.5-fold, 754 nM
- CN1CC(NC(=O)c2cccc([C@@H](CCN3CC[C@H](C(=O)O)C3)NC(=O)c3nc4cc5c(nc4s3)CC[C@H](C(C)(C)C)C5)c2)C1 (racemic) [Example 113, rac-(3S)-1-[rac-(3R)-3-[3-[(1-methylazetidin-1-ium-3-yl)carbamoyl]phenyl]-3-[[rac-(7S)-7-tert-butyl-5,6,7,8-tetrahydrothiazolo[5,4-b]quinoline-2-carbonyl]amino]propyl]pyrrolidine-3-carboxylic acid; 2,2,2-trifluoroacetate] — 1.8-fold higher, 939 nM
